Measurements from patent US10676485B2, “Macrocyclic MCL-1 inhibitors and methods of use” (AbbVie Inc., priority 2017, dated 2020).
Like-named read-outs stand apart in the source and are kept apart here.

Legend:
GST-MCL-1 = GST-MCL-1 (Homo sapiens (Human), UniProt Q07820); test: TR-FRET MCL-1 binding assay (competition with probe F-Bak)
Protocol: For the assay, an acoustic dispenser was used to prepare dilution series from 10 mM test compounds in 100% DMSO and directly transfer 160 nL into low volume 384-well assay plates. 8 μL of a protein/probe/antibody mix was then added to each well resulting in final concentrations listed below: Test compound: 11 three-fold dilutions beginning at 25 μM
The samples were then mixed on a shaker for 1 minute and incubated for an additional 2 hours at room temperature. For each assay plate, a probe/antibody and protein/antibody/probe mixture were included as a negative and a positive control, respectively. Fluorescence was measured on the Envision (Perkin Elmer) using a 340/35 nm excitation filter and 520/525 (F-Bak) and 495/510 nm (Tb-labeled anti-his antibody) emission filters. […] The TR-FRET assay can be performed in the presence of varying concentrations of human serum (HS) or fetal bovine serum (FBS). Compounds were tested both without HS and in the presence of 10% HS.

[1] = system: AMO-1 human multiple myeloma tumor cell line; test: AMO-1 cell viability assay (CellTiter-Glo); format: cell-based; details: AMO1, read-out: AMO-1 Viability IC50 (μM), 10% FBS, 24 hours of compound treatment
[2] = system: NCI-H929 human multiple myeloma tumor cell line; test: NCI-H929 cell viability assay (CellTiter-Glo); format: cell-based; details: NCI-H929, read-out: H929 Viability IC50 (μM), 10% FBS, 24 hours of compound treatment
Protocol: In one exemplary set of conditions, NCI-H929 or AMO-1 (ATCC. Manassas, Va.) were plated 4.000 cells per well in 384-well tissue culture plates (Corning. Corning, N.Y.) in a total volume of 25 μL RPMI tissue culture medium supplemented with 10% fetal bovine serum (Sigma-Aldrich, St. Louis, Mo.) and treated with a 3-fold serial dilution of the compounds of interest with a Labcyte Echo from a final concentration of 10 μM to 0.0005 μM. Each concentration was tested in duplicate at least 3 independent times. A luminescent signal proportional to the number of viable cells following 24 hours of compound treatment was determined using the CellTiter-Glo® Luminescent Cell Viability Assay according to the manufacturer's recommendations (Promega Corp., Madison, Wis.). The plates were read in a Perkin Elmer Envision using a Luminescence protocol. To generate dose response curves the data is normalized to percent viability by setting the averages of the staurosporine (10 uM) and DMSO only control wells to 0% and (00)% viability respectively. The IC50 values for the compounds are generated by fitting the normalized data with Accelrys Assay Explorer 3.3 to a sigmoidal curve model using linear regression.

[3] = read-out: MCL-1 Binding Ki (nM, 10% HS), in the presence of 10% HS
[4] = without HS, read-out: MCL-1 Binding Ki

Chain of GST-MCL-1 (Q07820 whole entry): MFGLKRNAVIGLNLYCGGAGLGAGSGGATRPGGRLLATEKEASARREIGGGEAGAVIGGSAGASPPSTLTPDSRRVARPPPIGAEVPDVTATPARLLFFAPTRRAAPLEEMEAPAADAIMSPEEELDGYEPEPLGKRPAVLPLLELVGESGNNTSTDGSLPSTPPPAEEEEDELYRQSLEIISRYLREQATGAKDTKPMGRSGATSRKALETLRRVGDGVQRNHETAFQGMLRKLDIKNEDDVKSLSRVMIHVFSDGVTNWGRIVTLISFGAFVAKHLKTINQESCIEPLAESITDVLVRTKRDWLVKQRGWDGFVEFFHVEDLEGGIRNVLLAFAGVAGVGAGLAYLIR

Structure (SMILES)	Ki (GST-MCL-1; [3]) [nM]	Ki (GST-MCL-1; [4]) [nM]	IC50 [1] [nM]	IC50 [2] [µM]
Cc1c(Cl)c2c(Cl)c(C)c1-c1c(-c3ccc(F)cc3)sc3ncnc(c13)O[C@@H](C(=O)O)Cc1cc(ccc1OCc1ccnc(-c3cccc(OC[C@@H]4COCCO4)c3)n1)OC[C@@H](CN1CCN(C)CC1)O2 [Example 22, (7R,16R)-19,23-dichloro-10-{[2-(3-{[(2S)-1,4-dioxan-2-yl]methoxy}phenyl)pyrimidin-4-yl]methoxy}-1-(4-fluorophenyl)-20,22-dimethyl-16-[(4-methylpiperazin-1-yl)methyl]-7,8,15,16-tetrahydro-18,21-etheno-13,9-(metheno)-6,14,17-trioxa-2-thia-3,5-diazacyclononadeca[1,2,3-cd]indene-7-carboxylic acid]	0.89	0.016	0.142	0.000333
Cc1c(Cl)c2c(Cl)c(C)c1-c1c(-c3ccc(F)cc3)sc3ncnc(c13)O[C@@H](C(=O)O)Cc1cc(ccc1OCc1nccc(-c3ccc(OC[C@H]4COCCO4)cc3)n1)OC[C@@H](CN1CCN(C)CC1)O2 [Example 23, (7R,16R)-19,23-dichloro-10-{[4-(4-{[(2R)-1,4-dioxan-2-yl]methoxy}phenyl)pyrimidin-2-yl]methoxy}-1-(4-fluorophenyl)-20,22-dimethyl-16-[(4-methylpiperazin-1-yl)methyl]-7,8,15,16-tetrahydro-18,21-etheno-13,9-(metheno)-6,14,17-trioxa-2-thia-3,5-diazacyclononadeca[1,2,3-cd]indene-7-carboxylic acid]	41	4.98	3.15	0.00849
Cc1c(Cl)c2c(Cl)c(C)c1-c1c(-c3ccc(F)cc3)sc3ncnc(c13)O[C@@H](C(=O)O)Cc1cc(ccc1OCc1ccnc(OC[C@@H]3COCCO3)n1)OC[C@@H](CN1CCN(C)CC1)O2 [Example 24, (7R,16R)-19,23-dichloro-10-[(2-{[(2S)-1,4-dioxan-2-yl]methoxy}pyrimidin-4-yl)methoxy]-1-(4-fluorophenyl)-20,22-dimethyl-16-[(4-methylpiperazin-1-yl)methyl]-7,8,15,16-tetrahydro-18,21-etheno-9,13-(metheno)-6,14,17-trioxa-2-thia-3,5-diazacyclononadeca[1,2,3-cd]indene-7-carboxylic acid]	0.38	0.038	0.687	0.00197
Cc1c(Cl)c2c(Cl)c(C)c1-c1c(-c3ccc(F)cc3)sc3ncnc(c13)O[C@@H](C(=O)O)Cc1cc(ccc1OCc1ccnc(OC[C@H]3COCCO3)n1)OC[C@@H](CN1CCN(C)CC1)O2 [Example 25, (7R,16R)-19,23-dichloro-10-[(2-{[(2R)-1,4-dioxan-2-yl]methoxy}pyrimidin-4-yl)methoxy]-1-(4-fluorophenyl)-20,22-dimethyl-16-[(4-methylpiperazin-1-yl)methyl]-7,8,15,16-tetrahydro-18,21-etheno-9,13-(metheno)-6,14,17-trioxa-2-thia-3,5-diazacyclononadeca[1,2,3-cd]indene-7-carboxylic acid]	0.19	0.003	0.629	0.00188
Cc1c(Cl)c2c(Cl)c(C)c1-c1c(-c3ccc(F)cc3)sc3ncnc(c13)O[C@@H](C(=O)O)Cc1cc(ccc1OCc1ccnc(N3CCN(S(=O)(=O)CC4COCCO4)CC3)n1)OC[C@@H](CN1CCN(C)CC1)O2 (stereo partly drawn) [Example 26, (7R,16R)-19,23-dichloro-10-[(2-{4-[(1,4-dioxan-2-yl)methanesulfonyl]piperazin-1-yl}pyrimidin-4-yl)methoxy]-1-(4-fluorophenyl)-20,22-dimethyl-16-[(4-methylpiperazin-1-yl)methyl]-7,8,15,16-tetrahydro-18,21-etheno-13,9-(metheno)-6,14,17-trioxa-2-thia-3,5-diazacyclononadeca[1,2,3-cd]indene-7-carboxylic acid]	1	0.104	0.2	0.000241
COc1ccccc1-c1nccc(COc2ccc3cc2C[C@H](C(=O)O)Oc2ncnc4sc(C5=COCCO5)c(c24)-c2c(C)c(Cl)c(c(Cl)c2C)O[C@H](CN2CCN(C)CC2)CO3)n1 [Example 27, (7R,16R)-19,23-dichloro-1-(5,6-dihydro-1,4-dioxin-2-yl)-10-{[2-(2-methoxyphenyl)pyrimidin-4-yl]methoxy}-20,22-dimethyl-16-[(4-methylpiperazin-1-yl)methyl]-7,8,15,16-tetrahydro-18,21-etheno-13,9-(metheno)-6,14,17-trioxa-2-thia-3,5-diazacyclononadeca[1,2,3-cd]indene-7-carboxylic acid]	0.02	0.008	0.435	0.0015
Cc1c(Cl)c2c(Cl)c(C)c1-c1c(-c3ccc(F)cc3)sc3ncnc(c13)O[C@@H](C(=O)O)Cc1cc(ccc1OCc1ccnc([C@H]3CC[C@](F)(COC[C@@H]4COCCO4)CC3)n1)OC[C@@H](CN1CCN(C)CC1)O2 [Example 28, (7R,16R)-19,23-dichloro-10-({2-[(1R,4s)-4-({[(2S)-1,4-dioxan-2-yl]methoxy}methyl)-4-fluorocyclohexyl]pyrimidin-4-yl}methoxy)-1-(4-fluorophenyl)-20,22-dimethyl-16-[(4-methylpiperazin-1-yl)methyl]-7,8,15,16-tetrahydro-18,21-etheno-13,9-(metheno)-6,14,17-trioxa-2-thia-3,5-diazacyclononadeca[1,2,3-cd]indene-7-carboxylic acid]	0.18	0.017	0.211	0.000337
Cc1c(Cl)c2c(Cl)c(C)c1-c1c(C3CCC3)sc3ncnc(c13)O[C@@H](C(=O)O)Cc1cc(ccc1OCc1ccnc([C@H]3CC[C@H](OCC4COCCO4)CC3)n1)OC[C@@H](CN1CCN(C)CC1)O2 (stereo partly drawn) [Example 29, (7R,16R)-19,23-dichloro-1-cyclobutyl-10-[(2-{(1r,4r)-4-[(1,4-dioxan-2-yl)methoxy]cyclohexyl}pyrimidin-4-yl)methoxy]-20,22-dimethyl-16-[(4-methylpiperazin-1-yl)methyl]-7,8,15,16-tetrahydro-18,21-etheno-13,9-(metheno)-6,14,17-trioxa-2-thia-3,5-diazacyclononadeca[1,2,3-cd]indene-7-carboxylic acid]	0.55	0.011	0.0812	0.000346
Cc1c(Cl)c2c(Cl)c(C)c1-c1c(-c3ccc(F)cc3)sc3ncnc(c13)O[C@@H](C(=O)O)Cc1cc(ccc1OCc1ccnc(C3COCCOC3)n1)OC[C@@H](CN1CCN(C)CC1)O2 [Example 30, (7R,16R)-19,23-dichloro-10-{[2-(1,4-dioxepan-6-yl)pyrimidin-4-yl]methoxy}-1-(4-fluorophenyl)-20,22-dimethyl-16-[(4-methylpiperazin-1-yl)methyl]-7,8,15,16-tetrahydro-18,21-etheno-13,9-(metheno)-6,14,17-trioxa-2-thia-3,5-diazacyclononadeca[1,2,3-cd]indene-7-carboxylic acid]	0.16	0.015	0.285	0.000974
Cc1c(Cl)c2c(Cl)c(C)c1-c1c(-c3ccc(F)cc3)sc3ncnc(c13)O[C@@H](C(=O)O)Cc1cc(ccc1OCc1cc(-c3ccc(OC[C@H]4COCCO4)cc3)ncn1)OC[C@@H](CN1CCN(C)CC1)O2 [Example 31, (7R,16R)-19,23-dichloro-10-{[6-(4-{[(2R)-1,4-dioxan-2-yl]methoxy}phenyl)pyrimidin-4-yl]methoxy}-1-(4-fluorophenyl)-20,22-dimethyl-16-[(4-methylpiperazin-1-yl)methyl]-7,8,15,16-tetrahydro-18,21-etheno-13,9-(metheno)-6,14,17-trioxa-2-thia-3,5-diazacyclononadeca[1,2,3-cd]indene-7-carboxylic acid]	5.27	0.373	4.19	0.011
Cc1c(Cl)c2c(Cl)c(C)c1-c1c(C3=CCCC3)sc3ncnc(c13)O[C@@H](C(=O)O)Cc1cc(ccc1OCc1ccnc([C@H]3CC[C@H](OCC4COCCO4)CC3)n1)OC[C@@H](CN1CCN(C)CC1)O2 (stereo partly drawn) [Example 32, (7R,16R)-19,23-dichloro-1-(cyclopent-1-en-1-yl)-10-[(2-{(1r,4r)-4-[(1,4-dioxan-2-yl)methoxy]cyclohexyl}pyrimidin-4-yl)methoxy]-20,22-dimethyl-16-[(4-methylpiperazin-1-yl)methyl]-7,8,15,16-tetrahydro-18,21-etheno-13,9-(metheno)-6,14,17-trioxa-2-thia-3,5-diazacyclononadeca[1,2,3-cd]indene-7-carboxylic acid]	0.27	0.022	0.17	0.000296
Cc1c(Cl)c2c(Cl)c(C)c1-c1c(C3=CCCC3)sc3ncnc(c13)O[C@@H](C(=O)O)Cc1cc(ccc1OCc1ccnc([C@H]3CC[C@](F)(COC[C@@H]4COCCO4)CC3)n1)OC[C@@H](CN1CCN(C)CC1)O2 [Example 33, (7R,16R)-19,23-dichloro-1-(cyclopent-1-en-1-yl)-10-({2-[(1R,4s)-4-({[(2S)-1,4-dioxan-2-yl]methoxy}methyl)-4-fluorocyclohexyl]pyrimidin-4-yl}methoxy)-20,22-dimethyl-16-[(4-methylpiperazin-1-yl)methyl]-7,8,15,16-tetrahydro-18,21-etheno-13,9-(metheno)-6,14,17-trioxa-2-thia-3,5-diazacyclononadeca[1,2,3-cd]indene-7-carboxylic acid]	0.3	0.023	0.222	0.000586
